Data as given in ChEMBL document CHEMBL3120136 (J Med Chem, 2014).
pEC50, pIC50: −log10 of the molar value. Values after ≈ are worked out from the molar mass of the structure shown.

Tests used:
[1] = system: Hepatitis C virus; assay: Antiviral activity against Hepatitis C virus infected in human HuH7 cells assessed as inhibition of HCV subgenomic replicon replication after 72 hrs by ELISA; type: functional, organism-based, Hepacivirus hominis, Huh-7; conditions: for pEC50: Hepatitis C virus, Huh-7, 72 h, read-out: EC50
[2] = Inhibition of Hepatitis C virus full-length NS3/4A protease assessed as quenched-fluorogenic RET-S1 substrate cleavage incubated for 10 mins prior to substrate addition by FRET analysis; set-up: species or system Hepacivirus hominis
[3] = Ratio of AUC (0 to 24 hrs) in liver to plasma in Sprague-Dawley rat at 30 mg/kg, po by HPLC-MS/MS analysis; type: ADME, organism-based; set-up: dose 30 mg/kg, route oral; conditions: Sprague-Dawley, liver and plasma, read-out: Ratio AUC
[4] = AUC (0 to 24 hrs) in Sprague-Dawley rat plasma at 30 mg/kg, po by HPLC-MS/MS analysis; type: ADME, organism-based; set-up: time < 24 hr, dose 30 mg/kg, route oral
[5] = AUC (0 to 24 hrs) in Sprague-Dawley rat liver at 30 mg/kg, po by HPLC-MS/MS analysis; type: ADME, organism-based; set-up: time < 24 hr, dose 30 mg/kg, route oral
[6] = Plasma clearance in rat assessed as extraction ratio; type: ADME, organism-based; conditions: read-out: ERH
[7] = Efflux ratio of permeability from basolateral to apical side over apical to basolateral side in human Caco2 cells; type: ADME, cell-based; conditions: Caco-2
[8] = Permeability from apical to basolateral side of human Caco2 cells; type: ADME, cell-based; conditions: Caco-2, read-out: permeability
[9] = Aqueous solubility of the compound at pH 6.5 by modified shake-flask method; type: physicochemical
[10] = Aqueous solubility of the compound at pH 7.4 by modified shake-flask method; type: physicochemical
[11] = Aqueous solubility of the compound at pH 1.2 by modified shake-flask method; type: physicochemical
[12] = Metabolic stability in dog hepatocytes assessed as extraction ratio at 1 uM; type: ADME, cell-based, Canis lupus familiaris, Hepatocyte; conditions: read-out: ERH
[13] = Metabolic stability in cynomolgus monkey hepatocytes assessed as extraction ratio at 1 uM; type: ADME, cell-based, Macaca fascicularis, Hepatocyte; conditions: read-out: ERH
[14] = Metabolic stability in human hepatocytes assessed as extraction ratio at 1 uM; type: ADME, cell-based, Hepatocyte; conditions: read-out: ERH
[15] = Metabolic stability in rat hepatocytes assessed as extraction ratio at 1 uM; type: ADME, cell-based, Hepatocyte; conditions: read-out: ERH
[16] = Lipophilicity, log D of the compound; type: physicochemical; conditions: octanol/water
[17] = system: Rattus norvegicus; assay: Volume of distribution at steady state in Sprague-Dawley rat at 1 mg/kg, iv by HPLC-MS/MS analysis; conditions: in vivo

CC(C)(C)OC(=O)N[C@H]1CCCCC/C=C\[C@@H]2C[C@@]2(C(=O)NS(=O)(=O)C2CC2)NC(=O)[C@@H]2C[C@@H](OC(=O)N3Cc4ccccc4C(O)C3)CN2C1=O (stereo partly drawn)
pEC50 [1]: 6.14
pIC50 [2]: 8.66

CC(C)(C)OC(=O)N[C@H]1CCCCC/C=C\[C@@H]2C[C@@]2(C(=O)O)NC(=O)[C@@H]2C[C@@H](O)CN2C1=O
EC50 ([1]; huh-7): Not Active
pIC50 [2]: < 4.30

CN(C)S(=O)(=O)NC(=O)[C@@]12C[C@H]1/C=C\CCCCC[C@H](NC(=O)OC(C)(C)C)C(=O)N1C[C@H](OC(=O)N3Cc4ccccc4C3)C[C@H]1C(=O)N2
pEC50 [1]: 8.55
pIC50 [2]: 8.60
Kp [3]: 132
AUC(0-t) at 24 h [4]: 1030 ng·h/mL
AUC(0-t) at 24 h [5]: 136000 ng·h/mL
hepatic extraction ratio [6]: > 1
efflux ratio [7]: > 2
Papp A→B [8]: < 2 ×10⁻⁶ cm/s
solubility thermodynamic [9]: 165 µg/mL (≈ 230 µM)
solubility thermodynamic [10]: > 1000 µg/mL
solubility thermodynamic [11]: 0.5 µg/mL (≈ 0.697 µM)
hepatic extraction ratio at 1 µM [12]: 0.16
hepatic extraction ratio at 1 µM [13]: 0.56
hepatic extraction ratio at 1 µM [14]: 0.56
hepatic extraction ratio at 1 µM [15]: 0.16
logD [16]: 2.5
Vdss [17]: 2583 mL/kg

CC(C)(C)OC(=O)N[C@H]1CCCCC/C=C\[C@@H]2C[C@@]2(C(=O)NS(=O)(=O)C2CC2)NC(=O)[C@@H]2C[C@@H](OC(=O)N3Cc4ccccc4C3)CN2C1=O
pEC50 [1]: 8.70
pIC50 [2]: 8.92
Kp [3]: 1.2
AUC(0-t) at 24 h [4]: 32900 ng·h/mL
AUC(0-t) at 24 h [5]: 40300 ng·h/mL
hepatic extraction ratio [6]: 0.06
efflux ratio [7]: > 2
Papp A→B [8]: < 2 ×10⁻⁶ cm/s
solubility thermodynamic [9]: 702 µg/mL (≈ 983 µM)
solubility thermodynamic [10]: > 1000 µg/mL
solubility thermodynamic [11]: 0.5 µg/mL (≈ 0.7 µM)
hepatic extraction ratio at 1 µM [12]: 0.33
hepatic extraction ratio at 1 µM [13]: 0.28
hepatic extraction ratio at 1 µM [14]: 0.65
hepatic extraction ratio at 1 µM [15]: 0.01
logD [16]: 2.4
Vdss [17]: 89 mL/kg
